In US20240300936A1 (priority 2021, published 2024):

Tested on: HELA cells
Assay: HELA cell proliferation assay (CellTitre-Glo, 6 days)
Format: cell-based
Conditions: Homo sapiens, 144 h; HELA cells, 6 days treatment, CellTitre-Glo; read-out: HeLa pIC50 (converted)

`CC(C)(Nc1nc(N)nc(-c2ccc3cn[nH]c3c2F)n1)c1ccn(C(F)F)n1` [Example 102, N2-[1-[1-(difluoromethyl)pyrazol-3-yl]-1-methyl-ethyl]-6-(7-fluoro-1H-indazol-6-yl)-1,3,5-triazine-2,4-diamine] was tested, and the IC50 was 295 nM.

`CC(C)(Nc1nc(N)nc(-c2cc(F)c3cn[nH]c3c2)n1)c1ccn(C(F)F)n1` [Example 104, N2-[1-[1-(difluoromethyl)pyrazol-3-yl]-1-methyl-ethyl]-6-(4-fluoro-1H-indazol-6-yl)-1,3,5-triazine-2,4-diamine] showed an IC50 of 219 nM.
